Patent US6444819B1, “Benzylpiperazinyl and piperidinyl ethanone derivatives: dopamine receptor subtype specific ligands” (Neurogen Corporation, priority 1998, dated 2002)

Target: T1, human D4 receptors (Homo sapiens, UniProt P21917)
T1 construct: expressed in transfected cells; host or cells: CHO cells
T1 sequence (P21917 1-419): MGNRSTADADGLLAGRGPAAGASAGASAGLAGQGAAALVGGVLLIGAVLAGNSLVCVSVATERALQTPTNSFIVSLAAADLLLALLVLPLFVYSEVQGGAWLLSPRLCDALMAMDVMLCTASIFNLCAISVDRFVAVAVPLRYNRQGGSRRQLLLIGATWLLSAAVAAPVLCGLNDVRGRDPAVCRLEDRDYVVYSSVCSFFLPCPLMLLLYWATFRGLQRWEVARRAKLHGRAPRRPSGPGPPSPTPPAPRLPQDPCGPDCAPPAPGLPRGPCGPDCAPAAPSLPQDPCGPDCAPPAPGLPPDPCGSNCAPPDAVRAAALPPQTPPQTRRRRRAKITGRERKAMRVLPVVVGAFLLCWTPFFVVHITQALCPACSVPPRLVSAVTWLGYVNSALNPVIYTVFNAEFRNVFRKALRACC
Assay: D4 receptor binding assay (3H-YM 09151-2 displacement)
Conditions: CHO cell membranes with cloned human D4 receptor; 0.5 nM 3H-YM 09151-2
Protocol: The cloned membranes are homogenized in 100 volumes (wt/vol) of 0.05 M Tris-HCl buffer at 4° C. and pH 7.4 containing 120 mM NaCl, 1 mM EDTA and 5 mM MgCl2. The samples were centrifuged at 48,000×g then re-suspended and re-homogenized. The final tissue sample is kept frozen until use. The tissue is resuspended 1:20 (wt/vol) in 0.05 M Tris-HCl buffer containing 120 mM NaCl prior to use.
Non-specific binding is defined as that binding found in the presence of 1 mM spiperone; without further additions, nonspecific binding is less than 20% of total binding.

Work on `CCCCN(C(=O)CN1CCN(Cc2ccc(Cl)cc2)CC1)c1ccccc1` [Compound 2, N-butyl-2-(4-(4-chlorobenzyl)piperazinyl)-N-phenylethanamide] yielded a Ki of 154 nM.
